Patent US10975068B2, “6-aminopyridin-3-yl thiazoles as modulators of RORγT” (Janssen Pharmaceutica NV, priority 2016, dated 2021)
Where two headings read alike, the source gives them in different places.

Experiments:
[1] = target: human RORγt ligand binding domain (RORγt LBD) (Homo sapiens (Human), UniProt P51449); experiment: RORγt ThermoFluor® assay (thermal shift binding); conditions: read-out: ThermoFluor® Assay, Kd
Procedure, shortened: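 His-tagged human RORγt LBD (0.065 mg/mL) with 60 μM 1,8-ANS in 100 mM Hepes pH 7.0, 10 mM NaCl, 2.5 mM GSH, 0.002% Tween-20 was heated at 1 °C/min.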

full-length human RORγt = full-length human RORγt (Homo sapiens (Human), UniProt P51449); experiment: RORγt (full-length human) reporter assay, Conditions B or C; type: cell-based; conditions: for RORγt (FL) Reporter Assay B or C, % inhibition (value marked *): marked *: footnote not given; for IC50: read-out: RORγt (FL) Reporter Assay B or C, IC50; for inhibition at 3 µM: at 3 μM compound concentration
Chain of full-length human RORγt (P51449 other isoform, or with tags, fused parts or gaps): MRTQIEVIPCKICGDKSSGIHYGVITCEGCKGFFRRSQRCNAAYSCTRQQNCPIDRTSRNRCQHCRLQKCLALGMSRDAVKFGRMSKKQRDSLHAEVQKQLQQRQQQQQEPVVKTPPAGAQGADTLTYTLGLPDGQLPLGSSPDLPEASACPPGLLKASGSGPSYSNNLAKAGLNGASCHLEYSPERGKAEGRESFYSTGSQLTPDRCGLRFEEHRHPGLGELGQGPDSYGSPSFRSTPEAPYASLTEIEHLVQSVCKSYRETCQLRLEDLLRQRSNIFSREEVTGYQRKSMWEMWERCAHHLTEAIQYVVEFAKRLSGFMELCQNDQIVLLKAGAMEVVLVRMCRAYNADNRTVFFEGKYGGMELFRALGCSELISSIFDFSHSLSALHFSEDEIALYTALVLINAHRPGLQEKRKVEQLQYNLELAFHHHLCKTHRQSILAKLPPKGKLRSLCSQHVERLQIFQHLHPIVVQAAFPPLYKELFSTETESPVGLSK
Procedure, shortened: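 HEK293T cells transiently co-transfected with GAL4-DBD–full-length human RORγt (nt 142-1635, NM_001001523.1) plus GAL4-firefly and CMV-Renilla luciferase reporters; compounds added 4-6 h post-transfection for 16-20 h in 1.3% FBS, 0.1% DMSO. Firefly signal normalized to DMSO and saturating reference compound, then to Renilla; IC50 from concentration plots.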

[2] = read-out: RORγt (FL) Reporter Assay B or C, % inhibition

Chain of human RORγt ligand binding domain (RORγt LBD) (P51449 other isoform, or with tags, fused parts or gaps): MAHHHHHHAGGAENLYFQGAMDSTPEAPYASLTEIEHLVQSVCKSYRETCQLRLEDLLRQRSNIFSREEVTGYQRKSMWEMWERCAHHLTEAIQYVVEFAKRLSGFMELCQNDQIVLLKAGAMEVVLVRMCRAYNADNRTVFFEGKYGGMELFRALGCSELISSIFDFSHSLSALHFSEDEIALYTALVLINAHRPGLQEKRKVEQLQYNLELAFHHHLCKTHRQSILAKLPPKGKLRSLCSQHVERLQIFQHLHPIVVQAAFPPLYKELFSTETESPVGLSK

Row | Compound | Kd [1] | RORγt (FL) Reporter Assay B or C, % inhibition (value marked *) (full-length human RORγt; Conditions B or C) | IC50 (full-length human RORγt; Conditions B or C) | inhibition at 0.3 µM (full-length human RORγt; at 0.3 μM compound concentration, read-out: RORγt (FL) Reporter Assay B or C, % inhibition) | IC50 (full-length human RORγt) | inhibition at 3 µM (full-length human RORγt; [2]) | inhibition at 6 µM (full-length human RORγt; read-out: RORγt (FL) Reporter Assay B or C, % inhibition @ 6 μM, Conditions B or C, @ 6 μM)
1 | C[C@H]1CCCN1C(=O)c1nc(C(=O)NC[C@H](O)C(C)(C)O)sc1-c1cnc(NC(C)(C)C)cc1C(F)(F)F (single isomer, unassigned) [Example 244, 5-(6-(tert-Butylamino)-4-(trifluoromethyl)pyridin-3-yl)-N—((S*)-2,3-dihydroxy-3-methylbutyl)-4-((S)-2-methylpyrrolidine-1-carbonyl)thiazole-2-carboxamide] | 6.2 nM | 106* % | 8.3 nM |  |  |  | 
2 | C[C@H]1CCCN1C(=O)c1nc(C(=O)N[C@H]2CC[C@@H]2O)sc1-c1cnc(NC(C)(C)C)cc1C(F)F (relative stereo) [Example 404, 5-(6-(tert-Butylamino)-4-(difluoromethyl)pyridin-3-yl)-N-((1S*,2S*)-2-hydroxycyclobutyl)-4-((S)-2-methylpyrrolidine-1-carbonyl)thiazole-2-carboxamide] | 3.8 nM |  |  | 98% | 15 nM |  | 
3 | C[C@H](Nc1cc(C(F)F)c(-c2sc(C(=O)N[C@H](C)C(C)(C)O)nc2C(=O)N2CCC[C@@H]2C)cn1)C(F)(F)F [Example 200, 5-(4-(Difluoromethyl)-6-(((S)-1,1,1-trifluoropropan-2-yl)amino)pyridine-3-yl)-N—((R)-3-hydroxy-3-methylburan-2-yl)-4-((S)-2-methylpyrrolidine-1-carbonyl)thiazole-2-carboxamide] | 12 nM | 104* % | 200 nM |  |  |  | 
4 | C[C@H](CO)NC(=O)c1nc(C(=O)N2CC(F)(F)C[C@@H]2C)c(-c2cnc(NC(C)(C)C)cc2C(F)F)s1 [Example 428, 5-[6-(tert-Butylamino)-4-(difluoromethyl)-3-pyridyl]-4-[(2S)-4,4-difluoro-2-methyl-pyrrolidine-1-carbonyl]-N-[(1R)-2-hydroxy-1-methyl-ethyl]thiazole-2-carboxamide] | 1 nM |  |  |  | 17 nM | 113% | 
5 | C[C@H]1CC(F)(F)CN1C(=O)c1nc(C(=O)NC2CCS(=O)(=O)CC2)sc1-c1cnc(NC(C)(C)C)cc1C(F)F [Example 431, 5-[6-(tert-Butylamino)-4-(difluoromethyl)-3-pyridyl]-4-[(2S)-4,4-difluoro-2-methyl-pyrrolidine-1-carbonyl]-N-(1,1-dioxothian-4-yl)thiazole-2-carboxamide] | 0.36 nM |  |  |  | 20 nM | 107% | 
6 | C[C@H]1CCCN1C(=O)c1nc(C(=O)N[C@H](C)C(C)(C)O)sc1-c1cnc(N[C@H](C2CC2)C(F)(F)F)cc1C(F)F [Example 332, 5-(6-(((R)-1-Cyclopropyl-2,2,2-trifluoroethyl)amino)-4-(difluoromethyl)pyridin-3-yl)-N—((R)-3-hydroxy-3-methylbutan-2-yl)-4-((S)-2-methylpyrrolidine-1-carbonyl)thiazole-2-carboxamide] | 1.5 nM |  |  |  | 89 nM | 107% | 
7 | C[C@H]1CC(F)(F)CN1C(=O)c1nc(C(=O)N[C@H](C)C(C)(C)O)sc1-c1cnc(N[C@@H](C2CC2)C(F)(F)F)cc1C(F)F [Example 314, 5-(6-(((S)-1-Cyclopropyl-2,2,2-trifluoroethyl)amino)-4-(difluoromethyl)pyridin-3-yl)-4-((S)-4,4-difluoro-2-methylpyrrolidine-1-carbonyl)-N—((R)-3-hydroxy-3-methylbutan-2-yl)thiazole-2-carboxamide] | 1.4 nM |  |  |  | 35 nM | 101% | 
8 | C[C@H]1CCCN1C(=O)c1nc(C(=O)N[C@H]2C[C@H](O)C2)sc1-c1cnc(N[C@H](C2CC2)C(F)(F)F)cc1C(F)F [Example 320, 5-(6-(((R)-1-Cyclopropyl-2,2,2-trifluoroethyl)amino)-4-(difluoromethyl)pyridin-3-yl)-N-((1r,3S)-3-hydroxycyclobutyl)-4-((S)-2-methylpyrrolidine-1-carbonyl)thiazole-2-carboxamide] | 3.8 nM |  |  |  | 46 nM | 98% | 
9 | C[C@H](Nc1cc(C(F)F)c(-c2sc(C(=O)N[C@@H]3CC[C@@H](O)C3)nc2C(=O)N2CC(F)(F)C[C@@H]2C)cn1)C(F)(F)F [Example 410, 4-[(2S)-4,4-Difluoro-2-methyl-pyrrolidine-1-carbonyl]-5-[4-(difluoromethyl)-6-[[(1S)-2,2,2-trifluoro-1-methyl-ethyl]amino]-3-pyridyl]-N-[(1R,3R)-3-hydroxycyclopentyl]thiazole-2-carboxamide] | 1.1 nM |  |  |  | 18 nM | 97% | 
10 | C[C@H]1CCCN1C(=O)c1nc(C(=O)NCc2n[nH]c(=O)[nH]2)sc1-c1cnc(NC(C)(C)C)cc1C(F)(F)F [Example 302, (S)-5-(6-(tert-Butylamino)-4-(trifluoromethyl)pyridin-3-yl)-4-(2-methylpyrrolidine-1-carbonyl)-N-((5-oxo-4,5-dihydro-1H-1,2,4-triazol-3-yl)methyl)thiazole-2-carboxamide] | 49 nM |  |  |  | > 3000 nM | 86% | 
11 | CC[C@H](Nc1cc(C(F)F)c(-c2sc(C(=O)NC3CCOCC3)nc2C(=O)N2C3CCC2CC3)cn1)C(F)(F)F [Example 153] | 1.1 nM | 98* % | 52 nM |  |  |  | 
12 | C[C@H]1CCCCN1C(=O)c1nc(C(=O)NCC(C)(C)O)sc1-c1cnc(N[C@H]2CCCCC2(F)F)cc1C(F)(F)F (relative stereo) [Example 32, 5-(6-(((S*)-2,2-Difluorocyclohexyl)amino)-4-(trifluoromethyl)pyridin-3-yl)-N-(2-hydroxy-2-methylpropyl)-4-((S)-2-methylpiperidine-1-carbonyl)thiazole-2-carboxamide] | 0.26 nM |  | 2.2 nM |  |  |  | 109%
13 | C[C@H]1CC(F)(F)CN1C(=O)c1nc(C(=O)N[C@H](C)C(C)(C)O)sc1-c1cnc(NC2(C)CCC2)cc1C(F)F [Example 325, 4-((S)-4,4-Difluoro-2-methylpyrrolidine-1-carbonyl)-5-(4-(difluoromethyl)-6-((1-methylcyclobutyl)amino)pyridin-3-yl)-N—((R)-3-hydroxy-3-methylbutan-2-yl)thiazole-2-carboxamide] | 1.2 nM |  |  |  | 120 nM | 96% | 
14 | CC(C)(O)CNC(=O)c1nc(C(=O)N2C3CCC2CC3)c(-c2cnc(NC(C3CC3)C3CC3)cc2C(F)F)s1 [Example 178, 4-((1s,4s)-7-Azabicyclo[2.2.1]heptane-7-carbonyl)-5-(6-((dicyclopropylmethyl)amino)-4-(difluoromethyl)pyridine-3-yl)-N-(2-hydroxy-2-methylpropyl)thiazole-2-carboxamide] | 2 nM | 102* % | 5.5 nM |  |  |  | 
15 | C[C@H]1CC(F)(F)CN1C(=O)c1nc(C(=O)N[C@H]2COC[C@@H]2O)sc1-c1cnc(NC2(C)CCC2)cc1C(F)(F)F [Example 186] | 0.18 nM | 98* % | 16 nM |  |  |  | 
16 | C[C@H](Nc1cc(C(F)F)c(-c2sc(C(=O)N[C@H]3C[C@@H]3O)nc2C(=O)N2CCC[C@@H]2C)cn1)C(F)(F)F (relative stereo) [Example 223, 5-(4-(Difluoromethyl)-6-(((S)-1,1,1-trifluoropropan-2-yl)amino)pyridin-3-yl)-N-((1S*,2S*)-2-hydroxycyclopropyl)-4-((S)-2-methylpyrrolidine-1-carbonyl)thiazole-2-carboxamide] | 33 nM | 112* % | 100 nM |  |  |  | 
17 | C[C@H](NC(=O)c1nc(C(=O)N2CC(F)(F)C[C@@H]2C)c(-c2cnc(NC3(C)CCC3)cc2C(F)F)s1)C(C)(C)O [Example 326, 4-((S)-4,4-Difluoro-2-methylpyrrolidine-1-carbonyl)-5-(4-(difluoromethyl)-6-((1-methylcyclobutyl)amino)pyridin-3-yl)-N—((S)-3-hydroxy-3-methylbutan-2-yl)thiazole-2-carboxamide] | 0.71 nM |  |  |  | 97 nM | 90% | 
18 | CC[C@H](Nc1cc(C(F)F)c(-c2sc(C(=O)N[C@@H](C)[C@@H](C)O)nc2C(=O)N2CCC[C@@H]2C)cn1)C(F)(F)F (relative stereo) [Example 219, 5-(4-(Difluoromethyl)-6-(((S)-1,1,1-trifluorobutan-2-yl)amino)pyridin-3-yl)-N-((2S*,3R*)-3-hydroxybutan-2-yl)-4-((S)-2-methylpyrrolidine-1-carbonyl)thiazole-2-carboxamide] | 4.1 nM | 112* % | 20 nM |  |  |  | 
19 | C[C@H]1CCCN1C(=O)c1nc(C(=O)NCC(C)(C)O)sc1-c1cnc(NC2(C)CCC2)cc1C(F)F [Example 173] | 5.8 nM | 95* % | 55 nM |  |  |  | 
20 | CC1(Nc2cc(C(F)F)c(-c3sc(C(=O)NC4CCS(=O)(=O)CC4)nc3C(=O)N3C4CCC3CC4)cn2)CCC1 [Example 331, 4-((1s,4s)-7-Azabicyclo[2.2.1]heptane-7-carbonyl)-5-(4-(difluoromethyl)-6-((1-methylcyclobutyl)amino)pyridin-3-yl)-N-(1,1-dioxidotetrahydro-2H-thiopyran-4-yl)thiazole-2-carboxamide] | 1.5 nM |  |  |  | 23 nM | 81% | 
